Common to all, as to format: biochemical
One test addresses T1, human Src enzyme (Homo sapiens, UniProt P12931).
T1 construct: purchased Carna Biosciences, Inc. 08-173
In words: Src enzyme inhibitory activity (time-resolved fluorometry, biotinylated peptide phosphorylation). The note with it: biotinylated peptide phosphorylation, read-out: SRC_IC50. The essentials:
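Compounds were tested for blocking tyrosine phosphorylation of a biotinylated peptide substrate by recombinant human Src. Phosphorylated product was quantified by time-resolved fluorometry using europium cryptate and XL665 conjugates, and IC50 was calculated against the compound-free control.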

For the next test, the target named is T2, human Lck enzyme (Homo sapiens, UniProt P06239).
T2 construct: purchased Carna Biosciences, Inc. 08-170
In words: Lck enzyme inhibitory activity (time-resolved fluorometry, biotinylated peptide phosphorylation). The note with it: biotinylated peptide phosphorylation, read-out: LCK_IC50. The essentials:
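Readout pairs a europium cryptate-labelled anti-phosphotyrosine antibody with XL665-streptavidin, measured by time-resolved fluorescence. IC50 derived from percent inhibition against untreated controls.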

The next test concerns the target T3, human Yes1 enzyme (Homo sapiens, UniProt P07947).
T3 construct: made in house
Kind of test: Yes1 enzyme inhibitory activity (time-resolved fluorometry, biotinylated peptide phosphorylation). The note with it: biotinylated peptide phosphorylation, read-out: YES_IC50. The essentials: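 Inhibition was expressed against a compound-free control to give IC50, using TR-FRET read-out (Eu-cryptate anti-pTyr antibody, streptavidin-XL665).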

T1 sequence (P12931 whole entry): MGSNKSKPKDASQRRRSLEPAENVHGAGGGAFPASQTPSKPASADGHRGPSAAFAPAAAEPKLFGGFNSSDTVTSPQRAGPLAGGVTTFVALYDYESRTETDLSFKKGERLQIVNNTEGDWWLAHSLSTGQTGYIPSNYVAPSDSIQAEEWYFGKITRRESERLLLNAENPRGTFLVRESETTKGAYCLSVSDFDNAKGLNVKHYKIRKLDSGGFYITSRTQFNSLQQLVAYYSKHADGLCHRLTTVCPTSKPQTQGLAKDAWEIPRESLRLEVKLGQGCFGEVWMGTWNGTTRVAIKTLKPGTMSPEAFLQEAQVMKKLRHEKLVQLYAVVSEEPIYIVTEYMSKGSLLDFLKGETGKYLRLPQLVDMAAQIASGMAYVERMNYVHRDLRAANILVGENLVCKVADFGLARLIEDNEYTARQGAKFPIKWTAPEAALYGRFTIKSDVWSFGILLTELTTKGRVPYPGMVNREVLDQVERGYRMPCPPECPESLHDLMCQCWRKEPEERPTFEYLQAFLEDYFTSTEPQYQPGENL
T3 sequence (P07947 whole entry): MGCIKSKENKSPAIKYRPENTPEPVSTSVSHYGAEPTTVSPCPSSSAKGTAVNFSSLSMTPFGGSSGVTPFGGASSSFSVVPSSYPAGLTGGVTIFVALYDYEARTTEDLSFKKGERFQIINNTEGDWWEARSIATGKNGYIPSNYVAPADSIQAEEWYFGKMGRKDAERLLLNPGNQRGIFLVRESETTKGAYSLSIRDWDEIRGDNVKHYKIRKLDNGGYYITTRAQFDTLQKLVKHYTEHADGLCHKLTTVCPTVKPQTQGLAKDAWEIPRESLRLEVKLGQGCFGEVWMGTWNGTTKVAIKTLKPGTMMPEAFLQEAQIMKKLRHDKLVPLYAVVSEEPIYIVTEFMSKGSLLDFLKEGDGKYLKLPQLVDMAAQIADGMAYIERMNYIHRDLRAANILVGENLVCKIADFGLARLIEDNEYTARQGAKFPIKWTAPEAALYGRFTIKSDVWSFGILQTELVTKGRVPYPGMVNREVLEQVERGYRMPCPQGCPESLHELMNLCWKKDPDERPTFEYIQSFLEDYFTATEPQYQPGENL
T2 sequence (P06239 whole entry): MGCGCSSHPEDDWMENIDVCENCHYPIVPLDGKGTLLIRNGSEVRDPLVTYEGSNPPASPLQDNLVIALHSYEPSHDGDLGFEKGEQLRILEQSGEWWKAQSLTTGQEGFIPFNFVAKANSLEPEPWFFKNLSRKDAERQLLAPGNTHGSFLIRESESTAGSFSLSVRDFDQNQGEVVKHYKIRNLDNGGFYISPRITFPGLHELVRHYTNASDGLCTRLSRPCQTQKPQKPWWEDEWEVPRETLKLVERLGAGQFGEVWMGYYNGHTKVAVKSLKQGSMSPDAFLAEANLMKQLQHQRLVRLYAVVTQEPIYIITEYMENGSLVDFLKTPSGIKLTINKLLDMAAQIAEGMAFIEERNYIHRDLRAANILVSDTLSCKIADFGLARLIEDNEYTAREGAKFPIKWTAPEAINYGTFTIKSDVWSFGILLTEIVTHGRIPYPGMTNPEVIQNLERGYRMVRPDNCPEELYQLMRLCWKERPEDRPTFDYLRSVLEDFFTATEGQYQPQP

Turning to `Cc1cc(Oc2ccccc2F)ccc1-n1ncc(C(=O)c2cc3cc(OCCN4CCOCC4)c(N4CCCS4(=O)=O)cc3[nH]2)c1N` [Example 4-25-012, [5-amino-1-[4-(2-fluorophenoxy)-2-methylphenyl]pyrazol-4-yl]-[6-(1,1-dioxo-1,2-thiazolidin-2-yl)-5-(2-morpholin-4-ylethoxy)-1H-indol-2-yl]methanone], the values for the IC50 on human Src enzyme, at human Lck enzyme and on human Yes1 enzyme were 3 nM, 2.1 nM and 0.35 nM, respectively.
In the case of `Cc1cc(Oc2ccccc2F)ncc1-n1ncc(C(=O)c2cc3cc(OCC(F)F)c(N4CCCC4=O)cc3[nH]2)c1N` [Example 4-25-013, 1-{2-{5-amino-1-[6-(2-fluorophenoxy)-4-methylpyridin-3-yl]pyrazole-4-carbonyl}-5-(2,2-difluoroethoxy)-1H-indol-6-yl}pyrrolidin-2-one], the IC50 on human Src enzyme is 16 nM; on human Lck enzyme it was 4 nM; on human Yes1 enzyme, 1 nM.
The corresponding values for `Cc1cc(Oc2ccccc2F)ncc1-n1ncc(C(=O)c2cc3cc(OC(F)F)c(N4CCCC4=O)cc3[nH]2)c1N` [Example 4-25-014, 1-[2-[5-amino-1-[6-(2-fluorophenoxy)-4-methylpyridin-3-yl]pyrazole-4-carbonyl]-5-(difluoromethoxy)-1H-indol-6-yl]pyrrolidin-2-one] are 26 nM, 2.2 nM and 1.1 nM.
In the case of `Cc1cc(Oc2ccccc2F)cc(F)c1-n1ncc(C(=O)c2cc3cc(OC(F)F)c(N4CCCC4=O)cc3[nH]2)c1N` [Example 4-25-015, 1-[2-[5-amino-1-[2-fluoro-4-(2-fluorophenoxy)-6-methylphenyl]pyrazole-4-carbonyl]-5-(difluoromethoxy)-1H-indol-6-yl]pyrrolidin-2-one], the IC50 amounted to 44 nM at human Src enzyme, 8.2 nM at human Lck enzyme and 4.9 nM at human Yes1 enzyme.
The corresponding values for `Cc1cc(Oc2ccccc2F)ncc1-n1ncc(C(=O)c2cc3cc(OCC(F)F)c(N4CCOC4=O)cc3[nH]2)c1N` [Example 4-25-016, 3-{2-{5-amino-1-[6-(2-fluorophenoxy)-4-methylpyridin-3-yl]pyrazole-4-carbonyl}-5-(2,2-difluoroethoxy)-1H-indol-6-yl}-1,3-oxazolidin-2-one] are 13 nM, 1.5 nM and 0.48 nM.
In the case of `Cc1cc(Oc2ccccc2F)cc(F)c1-n1ncc(C(=O)c2cc3cc(OCC(F)F)c(N4CCOC4=O)cc3[nH]2)c1N` [Example 4-25-017, 3-[2-[5-amino-1-[2-fluoro-4-(2-fluorophenoxy)-6-methylphenyl]pyrazole-4-carbonyl]-5-(2,2-difluoroethoxy)-1H-indol-6-yl]-1,3-oxazolidin-2-one], the IC50 at human Src enzyme was found to be 6.4 nM; at human Lck enzyme, 2.3 nM; on human Yes1 enzyme, 1.3 nM.
As to `Cc1cc(Oc2ccccc2F)ncc1-n1ncc(C(=O)c2cc3cc(OC(F)F)c(N4CCOC4=O)cc3[nH]2)c1N` [Example 4-25-018, 3-[2-[5-amino-1-[6-(2-fluorophenoxy)-4-methylpyridin-3-yl]pyrazole-4-carbonyl]-5-(difluoromethoxy)-1H-indol-6-yl]-1,3-oxazolidin-2-one], the IC50 at human Src enzyme was 20 nM; at human Lck enzyme, 1.7 nM; on human Yes1 enzyme, 0.72 nM.
The corresponding values for `Cc1cc(Oc2ccccc2F)cc(F)c1-n1ncc(C(=O)c2cc3cc(OC(F)F)c(N4CCOC4=O)cc3[nH]2)c1N` [Example 4-25-019, 3-[2-[5-amino-1-[2-fluoro-4-(2-fluorophenoxy)-6-methylphenyl]pyrazole-4-carbonyl]-5-(difluoromethoxy)-1H-indol-6-yl]-1,3-oxazolidin-2-one] are 43 nM, 13 nM and 5.2 nM.
For the compound `Cc1cc(Oc2ccccc2F)ncc1-n1ncc(C(=O)c2cc3cc(OCC(F)F)c(N4CCOCC4)cc3[nH]2)c1N` [Example 4-25-020, {5-amino-1-[6-(2-fluorophenoxy)-4-methylpyridin-3-yl]pyrazol-4-yl}-[5-(2,2-difluoroethoxy)-6-morpholin-4-yl-1H-indol-2-yl]methanone], the IC50 stood at 13 nM at human Src enzyme, 2.3 nM at human Lck enzyme and 1.2 nM at human Yes1 enzyme.
For `Cc1cc(Oc2ccccc2F)cc(F)c1-n1ncc(C(=O)c2cc3cc(OCC(F)F)c(N4CCOCC4)cc3[nH]2)c1N` [Example 4-25-021, [5-amino-1-[2-fluoro-4-(2-fluorophenoxy)-6-methylphenyl]pyrazol-4-yl]-[5-(2,2-difluoroethoxy)-6-morpholin-4-yl-1H-indol-2-yl]methanone], the IC50 at human Src enzyme stood at 16 nM; on human Lck enzyme, 4.6 nM; at human Yes1 enzyme, 2.1 nM.
With `Cc1cc(Oc2ccccc2F)ncc1-n1ncc(C(=O)c2cc3cc(OC(F)F)c(N4CCOCC4)cc3[nH]2)c1N` [Example 4-25-022, [5-amino-1-[6-(2-fluorophenoxy)-4-methylpyridin-3-yl]pyrazol-4-yl]-[5-(difluoromethoxy)-6-morpholin-4-yl-1H-indol-2-yl]methanone], the IC50 at human Src enzyme was 59 nM; on human Lck enzyme, 10 nM; on human Yes1 enzyme, 5.9 nM.
The corresponding values for `Cc1cc(Oc2c(F)cccc2F)ncc1-n1ncc(C(=O)c2cc3cc(OC(F)F)c(N4CCOCC4)cc3[nH]2)c1N` [Example 4-25-023, [5-amino-1-[6-(2,6-difluorophenoxy)-4-methylpyridin-3-yl]pyrazol-4-yl]-[5-(difluoromethoxy)-6-morpholin-4-yl-1H-indol-2-yl]methanone] are 86 nM, 16 nM and 6.3 nM.
On to `Cc1cc(Oc2ccccc2F)ccc1-n1ncc(C(=O)c2cc3cc(OC(F)F)c(N4CCOCC4)cc3[nH]2)c1N` [Example 4-25-024, [5-amino-1-[4-(2-fluorophenoxy)-2-methylphenyl]pyrazol-4-yl]-[5-(difluoromethoxy)-6-morpholin-4-yl-1H-indol-2-yl]methanone], for which the IC50 on human Src enzyme worked out at 55 nM; at human Lck enzyme, 29 nM; at human Yes1 enzyme it was 0.69 nM.
For `Cc1cc(Oc2ccccc2F)cc(F)c1-n1ncc(C(=O)c2cc3cc(OC(F)F)c(N4CCOCC4)cc3[nH]2)c1N` [Example 4-25-025, [5-amino-1-[2-fluoro-4-(2-fluorophenoxy)-6-methylphenyl]pyrazol-4-yl]-[5-(difluoromethoxy)-6-morpholin-4-yl-1H-indol-2-yl]methanone] the same measures were 80 nM, 31 nM and 17 nM.
The corresponding values for `Cc1cc(Oc2ccccc2F)ncc1-n1ncc(C(=O)c2cc3cc(OCC(F)F)c(N4CCC(N5CCOCC5)CC4)cc3[nH]2)c1N` [Example 4-25-026, {5-amino-1-[6-(2-fluorophenoxy)-4-methylpyridin-3-yl]pyrazol-4-yl}-[5-(2,2-difluoroethoxy)-6-(4-morpholin-4-ylpiperidin-1-yl)-1H-indol-2-yl]methanone] are 12 nM, 1.6 nM and 0.92 nM.
For `Cc1cc(Oc2c(F)cccc2F)ncc1-n1ncc(C(=O)c2cc3cc(OCC(F)F)c(N4CCC(N5CCOCC5)CC4)cc3[nH]2)c1N` [Example 4-25-027, [5-amino-1-[6-(2,6-difluorophenoxy)-4-methylpyridin-3-yl]pyrazol-4-yl]-[5-(2,2-difluoroethoxy)-6-(4-morpholin-4-ylpiperidin-1-yl)-1H-indol-2-yl]methanone] the same measures were 23 nM, 2.1 nM and 0.8 nM.
As for `Cc1cc(Oc2ccccc2F)ccc1-n1ncc(C(=O)c2cc3cc(OCC(F)F)c(N4CCC(N5CCOCC5)CC4)cc3[nH]2)c1N` [Example 4-25-028, [5-amino-1-[4-(2-fluorophenoxy)-2-methylphenyl]pyrazol-4-yl]-[5-(2,2-difluoroethoxy)-6-(4-morpholin-4-ylpiperidin-1-yl)-1H-indol-2-yl]methanone], the results for the IC50 on human Src enzyme, on human Lck enzyme and on human Yes1 enzyme were 13 nM, 4.9 nM and 0.94 nM, respectively.
With `Cc1cc(Oc2ccccc2F)cc(F)c1-n1ncc(C(=O)c2cc3cc(OCC(F)F)c(N4CCC(N5CCOCC5)CC4)cc3[nH]2)c1N` [Example 4-25-029, [5-amino-1-[2-fluoro-4-(2-fluorophenoxy)-6-methylphenyl]pyrazol-4-yl]-[5-(2,2-difluoroethoxy)-6-(4-morpholin-4-ylpiperidin-1-yl)-1H-indol-2-yl]methanone], the IC50 was found to be 21 nM at human Src enzyme, 6.8 nM at human Lck enzyme and 2.4 nM on human Yes1 enzyme.
On to `Cc1cc(Oc2ccccc2F)ncc1-n1ncc(C(=O)c2cc3cc(OC(F)F)c(N4CCC(N5CCOCC5)CC4)cc3[nH]2)c1N` [Example 4-25-030, [5-amino-1-[6-(2-fluorophenoxy)-4-methylpyridin-3-yl]pyrazol-4-yl]-[5-(difluoromethoxy)-6-(4-morpholin-4-ylpiperidin-1-yl)-1H-indol-2-yl]methanone], for which the IC50 came to 38 nM at human Src enzyme, 9.1 nM at human Lck enzyme and 2.6 nM at human Yes1 enzyme.
For `Cc1cc(Oc2c(F)cccc2F)ncc1-n1ncc(C(=O)c2cc3cc(OC(F)F)c(N4CCC(N5CCOCC5)CC4)cc3[nH]2)c1N` [Example 4-25-031, [5-amino-1-[6-(2,6-difluorophenoxy)-4-methylpyridin-3-yl]pyrazol-4-yl]-[5-(difluoromethoxy)-6-(4-morpholin-4-ylpiperidin-1-yl)-1H-indol-2-yl]methanone], the IC50 is 48 nM at human Src enzyme, 7.2 nM on human Lck enzyme and 1.9 nM on human Yes1 enzyme.

(Values after patent US10479780B2, “Aminopyrazole derivatives” (Chugai Seiyaku Kabushiki Kaisha, priority 2015, dated 2019).)
